Measured values from patent US20230143604A1, “QW DOSING OF GIP RECEPTOR AGONIST PEPTIDE COMPOUNDS AND USES THEREOF” (TAKEDA PHARMACEUTICAL COMPANY LIMITED, priority 2020, published 2023).
pEC50: −log10 of the molar value. Several values for one entry are separate records, joined by “and”; a condition that tells them apart may be missing. Equal values may be shown once. Read-outs that look alike come from different tables or passages of the source.

Columns and labels:
[1] = molecular target: T1, human GLP-1R (Homo sapiens, UniProt P43220); test: Human GLP1R agonist activity, intracellular cAMP accumulation; format: cell-based; conditions: HEK-293T cells overexpressing human GLP-1R, 1 hr, read-out: Human GLP1R cAMP EC50, HEK293T
T1 construct: HEK-293T cells overexpressing full-length human GLP-1R; FLAG (N); host or cells: HEK-293T
T1 sequence (P43220 24-463): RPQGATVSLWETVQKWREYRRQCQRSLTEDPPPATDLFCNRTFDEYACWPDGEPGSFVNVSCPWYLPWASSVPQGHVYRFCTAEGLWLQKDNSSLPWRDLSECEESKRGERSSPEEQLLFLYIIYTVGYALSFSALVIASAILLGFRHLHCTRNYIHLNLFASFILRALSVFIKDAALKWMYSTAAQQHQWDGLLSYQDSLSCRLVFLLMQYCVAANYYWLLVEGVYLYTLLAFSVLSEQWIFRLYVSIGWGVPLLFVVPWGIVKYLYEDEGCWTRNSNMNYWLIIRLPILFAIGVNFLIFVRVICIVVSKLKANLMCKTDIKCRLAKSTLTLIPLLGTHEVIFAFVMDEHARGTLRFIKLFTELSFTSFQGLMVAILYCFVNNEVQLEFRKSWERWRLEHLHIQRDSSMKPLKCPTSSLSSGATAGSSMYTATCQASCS
In short: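 cAMP accumulation is measured by HTRF after a 1 hr, room-temperature, dark exposure of thawed cells (4×10^5 cells/mL in Krebs Ringer buffer) to compound. Activity is scaled between DMSO alone as 0% and 1 nm GLP-1 as 100%.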

[2] = system: C57BL/6J mice; test: Oral glucose tolerance test (OGTT); format: in vivo; conditions: 3 nmol/kg s.c., 24 hours before glucose loading
In short: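 Peptide or vehicle given s.c. at 0.1, 0.3, 3 or 10 nmol/kg (peptide-dependent), 24 h before oral 50% dextrose at 5 ml/kg unless stated otherwise. Blood glucose read at 0, 15, 30 and 60 min. % inhibition = (1−(AUC cpd−AUC naïve)/(AUC veh−AUC naïve))×100.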

[3] = system: Dogs; format: in vivo; conditions: 30 nmol/kg s.c.
[4] = Human plasma protein binding (PPB); format: in vitro ADME; conditions: human, plasma
In short: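 Peptides spiked at 1000 nmol/L into pooled human K2-EDTA plasma adjusted to pH 7.4, incubated 30 min at 37 °C, then ultracentrifuged at ~450,000 g, 4 °C for 3 h. Fu derived from LC-MS/MS (MRM) peak area ratios, supernatant versus plasma.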

[5] = Dog plasma protein binding (PPB); format: in vitro ADME; conditions: dog, serum, pH 7.4
In short: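 Fraction unbound (Fu,plasma) is given as a percentage. It was measured with the method and analysis of the human protein-binding protocol, but using dog serum in place of human serum.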

[6] = Pharmacokinetics in dog after IV and SC dosing; conditions: in vivo, 3 nmol/kg
In short: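 Dogs were dosed IV or SC at 1 mL/kg with peptide at 3 nmol/mL in 10% DMSO/0.09% Polysorbate/PBS pH 7.4. K2-EDTA plasma was sampled to 336 h, and peptide was quantified by LCMS to derive half-life.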

In the case of `CC[C@H](C)[C@H](NC(=O)[C@H](CO)NC(=O)[C@H](Cc1ccc(O)cc1)NC(=O)[C@H](CC(=O)O)NC(=O)[C@H](CO)NC(=O)[C@@H](NC(=O)[C@H](Cc1ccccc1)NC(=O)[C@@H](NC(=O)CNC(=O)[C@H](CCC(=O)O)NC(=O)C(C)(C)NC(=O)[C@H](Cc1ccc(O)cc1)NC)[C@@H](C)O)[C@@H](C)CC)C(=O)N[C@@H](C)C(=O)N[C@@H](CC(C)C)C(=O)N[C@@H](CC(=O)O)C(=O)N[C@@H](CCCNC(=N)N)C(=O)N[C@@H](CCCCNC(=O)CNC(=O)CNC(=O)CNC(=O)CNC(=O)CNC(=O)CCCCCCCCCCCCCCCCC(=O)O)C(=O)N[C@@H](C)C(=O)N[C@@H](CCC(N)=O)C(=O)NC(C)(C)C(=O)N[C@@H](CC(=O)O)C(=O)N[C@@H](Cc1ccccc1)C(=O)N[C@H](C(=O)N[C@@H](CC(N)=O)C(=O)N[C@@H](Cc1c[nH]c2ccccc12)C(=O)N[C@@H](CC(C)C)C(=O)N[C@@H](CC(C)C)C(=O)N[C@@H](C)C(=O)N[C@@H](CCC(N)=O)C(=O)N[C@@H](CO)C(=O)N1CCC[C@H]1C(=O)N[C@@H](CO)C(=O)N[C@@H](CO)C(=O)NCC(=O)N[C@@H](C)C(=O)N1CCC[C@H]1C(=O)N1CCC[C@H]1C(=O)N1CCC[C@H]1C(=O)N[C@@H](CO)C(N)=O)C(C)C` [Compound 50, Me-Y-Aib-E-G-T-F-I-S-D-Y-S-I-A-L-D-R-Km-A-Q-Aib-D-F-V-N-W-L-L-A-Q-S-P-S-S-G-A-P-P-P-S-NH2], the pEC50 [1] was 7.69, the “Oral Glucose Tolerance Test Percent decrease in blood glucose AUC (%) over 60 mins” value [2] was 89% and 69% and the “% inhibition of emetic events at doses (nmol/kg) shown in dog apomorphine model” value ([3]; after 8 hrs (upper)) was 82% (30 nmol/kg). For the same compound, the “% inhibition of emetic events at doses (nmol/kg) shown in dog apomorphine model” value ([3]; after 72 hours (lower)) was 86% (30 nmol/kg), the “free unbound peptide in human plasma (in words)” value [4] was “optimum free unbound peptide” and the fraction unbound at 30 min, 1000 nmol/L [5] was 0.0006. The half-life ([6]; iv) was 74 h and the MRT last ([6]; sc) was 103 h.
